system: Saccharomyces cerevisiae; test: Assay for Antifungal Activity (agar well zone of inhibition); type: cell-based; conditions: zones of inhibition after 48 hours, YPD agar
Method: Yeast organism (Saccharomyces cerevisiae) in logarithmic growth were plated on complete agar medium (YPD). Compounds dissolved in an appropriate aqueous or organic solvent were placed in wells punched in the agar. Plates were incubated for 48 hours and zones of inhibition were measured.

Molecule | Antifungal IC12
COc1ccc(C2CC3CCC(C)C(O)(O3)C(=O)C(=O)N3CCCCC3C(=O)OC(C(C)CC3CCC(O)C(OC)C3)CC(=O)C(C)C=C(C)C(O)C(OC)C(=O)C(C)CC(C)C=CC=CC=C2C)c(OC)c1 [Example 16, 7-Demethoxy-7 (R)-2',4'-dimethoxyphenyl)-rapamycin] | < 500 ng/mL
7-Demethoxy-7 (S)-(2' 4'-dimethoxyphenyl)-rapamycin [Example 15] | < 500 ng/mL

system: Spleen cells from BDF1 female mice; test: Mitogenesis Assay for Immunosuppressive Activity (concanavalin A, 3H-thymidine); type: cell-based; conditions: Concanavalin A 5 μg/ml, 72 hours at 37° C., 3H-thimidine uptake last 18 hours; read-out: Mitogenesis IC50
Method: Spleen cells from BDF1 female mice were established in RPMI with 10% fetal calf serum at 5×10^6 /mL. One hundred […] of this suspension (5×10^5 cells) were dispensed into 96-well round-bottomed microtiter plates (Linbro, Flow Laboratories). Concanavalin A (5 μg/ml) was added as the mitogenic stimulus, and the final volume in the microtiter wells was adjusted to 200 μL with RPMI. Cell cultures were incubated for 72 hours at 37° C. in a 5% CO2 atmosphere and pulsed with 0.5 μCi ^3 H-thymidine (specific activity […]) for the last 18 hours of the 72 hour culture. The cells were harvested on an automated multiple sample harvester and cell-associated radioactivity counted in a Beckman liquid scintillation counter. The results are expressed as the mean values derived from quadruplicate measurements. Cell viability was determined by trypan blue exclusion after 72 hours of incubation. Compounds to be tested were added to the microtiter plates at the appropriate dilutions prior to the addition of cells.

Molecule | IC50
COc1ccc(C2CC3CCC(C)C(O)(O3)C(=O)C(=O)N3CCCCC3C(=O)OC(C(C)CC3CCC(O)C(OC)C3)CC(=O)C(C)C=C(C)C(O)C(OC)C(=O)C(C)CC(C)C=CC=CC=C2C)c(OC)c1 [Example 16, 7-Demethoxy-7 (R)-2',4'-dimethoxyphenyl)-rapamycin] | < 1000 nM
7-Demethoxy-7 (S)-(2' 4'-dimethoxyphenyl)-rapamycin [Example 15] | < 500 nM

same assay, conditions: Mus musculus, read-out: Mitogenesis IC50

Molecule | IC50
CO[C@@H]1C[C@@H]2CC[C@@H](C)[C@@](O)(O2)C(=O)C(=O)N2CCCC[C@H]2C(=O)O[C@H]([C@H](C)C[C@@H]2CC[C@@H](O)[C@H](OC)C2)CC(=O)[C@H](C)/C=C(\C)[C@@H](O)[C@@H](OC)C(=O)[C@H](C)C[C@H](C)/C=C/C=C/C=C/1C [Example 20, 7-Epirapamycin] | < 500 nM

same assay, conditions: Mus musculus; Concanavalin A 5 μg/ml, 72 hours at 37° C., 3H-thimidine uptake last 18 hours; read-out: Mitogenesis IC50

Molecule | IC50
CO[C@@H]1C[C@H](C[C@@H](C)[C@@H]2CC(=O)[C@H](C)/C=C(\C)[C@@H](O)[C@@H](OC)C(=O)[C@H](C)C[C@H](C)/C=C/C=C/C=C(\C)[C@@H](Sc3ccccc3)C[C@@H]3CC[C@@H](C)[C@@](O)(O3)C(=O)C(=O)N3CCCC[C@H]3C(=O)O2)CC[C@H]1O [Example 11, 7-Demethoxy-7 (S)-phenylthiorapamycin] | < 500 nM
CCO[C@H]1C[C@@H]2CC[C@@H](C)[C@@](O)(O2)C(=O)C(=O)N2CCCC[C@H]2C(=O)O[C@H]([C@H](C)C[C@@H]2CC[C@@H](O)[C@H](OC)C2)CC(=O)[C@H](C)/C=C(\C)[C@@H](O)[C@@H](OC)C(=O)[C@H](C)C[C@H](C)/C=C/C=C/C=C/1C [Example 1, 7-Demethoxy-7(S)-ethoxyrapamycin] | < 500 nM
COc1ccc(CO[C@H]2C[C@@H]3CC[C@@H](C)[C@@](O)(O3)C(=O)C(=O)N3CCCC[C@H]3C(=O)O[C@H]([C@H](C)C[C@@H]3CC[C@@H](O)[C@H](OC)C3)CC(=O)[C@H](C)/C=C(\C)[C@@H](O)[C@@H](OC)C(=O)[C@H](C)C[C@H](C)/C=C/C=C/C=C/2C)cc1OC [Example 3, 7-Demethoxy-7(S)-(3,4-dimethoxybenzyloxy)rapamycin] | < 500 nM
CO[C@@H]1C[C@H](C[C@@H](C)[C@@H]2CC(=O)[C@H](C)/C=C(\C)[C@@H](O)[C@@H](OC)C(=O)[C@H](C)C[C@H](C)/C=C/C=C/C=C(\C)CC[C@@H]3CC[C@@H](C)[C@@](O)(O3)C(=O)C(=O)N3CCCC[C@H]3C(=O)O2)CC[C@H]1O [Example 8, 7-Demethoxyrapamycin] | < 500 nM
CCO[C@@H]1C[C@@H]2CC[C@@H](C)[C@@](O)(O2)C(=O)C(=O)N2CCCC[C@H]2C(=O)O[C@H]([C@H](C)C[C@@H]2CC[C@@H](O)[C@H](OC)C2)CC(=O)[C@H](C)/C=C(\C)[C@@H](O)[C@@H](OC)C(=O)[C@H](C)C[C@H](C)/C=C/C=C/C=C/1C [Example 2, 7-Demethoxy-7(R)-ethoxyrapamycin] | < 500 nM
CO[C@@H]1C[C@H](C[C@@H](C)[C@@H]2CC(=O)[C@H](C)/C=C(\C)[C@@H](O)[C@@H](OC)C(=O)[C@H](C)C[C@H](C)/C=C/C=C/C=C(\C)[C@H](O)C[C@@H]3CC[C@@H](C)[C@@](O)(O3)C(=O)C(=O)N3CCCC[C@H]3C(=O)O2)CC[C@H]1O [Example 19, 7-O-Demethyl-7-Epirapamycin] | < 500 nM
CO[C@@H]1C[C@H](C[C@@H](C)[C@@H]2CC(=O)[C@H](C)/C=C(\C)[C@@H](O)[C@@H](OC)C(=O)[C@H](C)C[C@H](C)/C=C/C=C/C=C(\C)[C@H](SC)C[C@@H]3CC[C@@H](C)[C@@](O)(O3)C(=O)C(=O)N3CCCC[C@H]3C(=O)O2)CC[C@H]1O [Example 10, 7-Demethoxy-7(R)-methylthiorapamycin] | < 500 nM
C=CC[C@H]1C[C@@H]2CC[C@@H](C)[C@@](O)(O2)C(=O)C(=O)N2CCCC[C@H]2C(=O)O[C@H]([C@H](C)C[C@@H]2CC[C@@H](O)[C@H](OC)C2)CC(=O)[C@H](C)/C=C(\C)[C@@H](O)[C@@H](OC)C(=O)[C@H](C)C[C@H](C)/C=C/C=C/C=C/1C [Example 13, 7-Demethoxy-7(S)-allylrapamycin] | < 500 nM
CO[C@@H]1C[C@H](C[C@@H](C)[C@@H]2CC(=O)[C@H](C)/C=C(\C)[C@@H](O)[C@@H](OC)C(=O)[C@H](C)C[C@H](C)/C=C/C=C/C=C(\C)[C@@H](O)C[C@@H]3CC[C@@H](C)[C@@](O)(O3)C(=O)C(=O)N3CCCC[C@H]3C(=O)O2)CC[C@H]1O [Example 18, 7-O-Demethylrapamycin] | < 500 nM
CO[C@@H]1C[C@H](C[C@@H](C)[C@@H]2CC(=O)[C@H](C)/C=C(\C)[C@@H](O)[C@@H](OC)C(=O)[C@H](C)C[C@H](C)/C=C/C=C/C=C(\C)[C@H](OCCO)C[C@@H]3CC[C@@H](C)[C@@](O)(O3)C(=O)C(=O)N3CCCC[C@H]3C(=O)O2)CC[C@H]1O [Example 5, 7-Demethoxy-7(R)-(2-hydroxyethoxy)rapamycin] | < 500 nM
CO[C@@H]1C[C@H](C[C@@H](C)[C@@H]2CC(=O)[C@H](C)/C=C(\C)[C@@H](O)[C@@H](OC)C(=O)[C@H](C)C[C@H](C)/C=C/C=C/C=C(\C)[C@H](c3ccco3)C[C@@H]3CC[C@@H](C)[C@@](O)(O3)C(=O)C(=O)N3CCCC[C@H]3C(=O)O2)CC[C@H]1O [Example 14, 7-Demethoxy-7(R)-(2'-furanyl)rapamycin] | < 500 nM
CO[C@@H]1C[C@H](C[C@@H](C)[C@@H]2CC(=O)[C@H](C)/C=C(\C)[C@@H](O)[C@@H](OC)C(=O)[C@H](C)C[C@H](C)/C=C/C=C/C=C(\C)[C@@H](OCCO)C[C@@H]3CC[C@@H](C)[C@@](O)(O3)C(=O)C(=O)N3CCCC[C@H]3C(=O)O2)CC[C@H]1O [Example 4, 7-Demethoxy-7(S)-(2-hydroxyethoxy)rapamycin] | < 500 nM
CO[C@@H]1C[C@H](C[C@@H](C)[C@@H]2CC(=O)[C@H](C)/C=C(\C)[C@@H](O)[C@@H](OC)C(=O)[C@H](C)C[C@H](C)/C=C/C=C/C=C(\C)[C@@H](c3ccco3)C[C@@H]3CC[C@@H](C)[C@@](O)(O3)C(=O)C(=O)N3CCCC[C@H]3C(=O)O2)CC[C@H]1O [Example 7, 7-Demethoxy-7(S)-(2'-furanyl)rapamycin] | < 500 nM
CO[C@@H]1C[C@H](C[C@@H](C)[C@@H]2CC(=O)[C@H](C)/C=C(\C)[C@@H](O)[C@@H](OC)C(=O)[C@H](C)C[C@H](C)/C=C/C=C/C=C(\C)[C@H](OC(C)=O)C[C@@H]3CC[C@@H](C)[C@@](O)(O3)C(=O)C(=O)N3CCCC[C@H]3C(=O)O2)CC[C@H]1O [Example 6, 7-Demethoxy-7(R)-acetoxyrapamycin] | < 500 nM
CO[C@@H]1C[C@H](C[C@@H](C)[C@@H]2CC(=O)[C@H](C)/C=C(\C)[C@@H](O)[C@@H](OC)C(=O)[C@H](C)C[C@H](C)/C=C/C=C/C=C(\C)C(=O)C[C@@H]3CC[C@@H](C)[C@@](O)(O3)C(=O)C(=O)N3CCCC[C@H]3C(=O)O2)CC[C@H]1O [Example 17, 7-Demethoxy-7-Oxorapamycin] | < 500 nM
CO[C@@H]1C[C@H](C[C@@H](C)[C@@H]2CC(=O)[C@H](C)/C=C(\C)[C@@H](O)[C@@H](OC)C(=O)[C@H](C)C[C@H](C)/C=C/C=C/C=C(\C)[C@@H](SC)C[C@@H]3CC[C@@H](C)[C@@](O)(O3)C(=O)C(=O)N3CCCC[C@H]3C(=O)O2)CC[C@H]1O [Example 9, 7-Demethoxy-7(S)-methylthiorapamycin] | < 500 nM

— patent US5728710A, “Rapamycin derivatives” (SmithKline Beecham Corporation, priority 1995, dated 1998)
